# Molecular target: T1, human GluR4B receptor (Homo sapiens, UniProt P48058)
# T1 construct: expressed in transfected cells; host or cells: HEK293
# Assay: potentiation of agonist-induced excitability of human GluR4B receptor expressed in HEK 293 cells
# Type: cell-based
# Excerpt: The ability of compounds of formula I to potentiate glutamate receptor-mediated response may be determined using fluorescent calcium indicator dyes (Molecular Probes, Eugene, Oreg., Fluo-3) and by measuring glutamate-evoked efflux of calcium into GluR4 transfected HEK293 cells, as described in more detail below.
# In one test, 96 well plates containing confluent monolayers of HEK cells stably expressing human GluR4B (obtained as described in European Patent Application Publication Number EP-A1-583917) are prepared. […]
# Each test is then performed as follows. […] A second fluorescent reading is taken after 5 minutes incubation. 15 μl of 400 μM glutamate solution is then added to each well (final glutamate concentration 100 μM), and a third reading is taken. The activities of test compounds and cyclothiazide solutions are determined by subtracting the second from the third reading (fluorescence due to addition of glutamate in the presence or absence of test compound or cyclothiazide) and are expressed relative to enhance fluorescence produced by 100 μM cyclothiazide.
# In another test, HEK293 cells stably expressing human GluR4 (obtained as described in European Patent Application Publication No. EP-A1-0583917) are used in the electro-physiological characterization of AMPA receptor potentiators. […] Responses to 1 mM glutamate are then determined in the presence of test compound. […]
# T1 sequence (P48058 21-902): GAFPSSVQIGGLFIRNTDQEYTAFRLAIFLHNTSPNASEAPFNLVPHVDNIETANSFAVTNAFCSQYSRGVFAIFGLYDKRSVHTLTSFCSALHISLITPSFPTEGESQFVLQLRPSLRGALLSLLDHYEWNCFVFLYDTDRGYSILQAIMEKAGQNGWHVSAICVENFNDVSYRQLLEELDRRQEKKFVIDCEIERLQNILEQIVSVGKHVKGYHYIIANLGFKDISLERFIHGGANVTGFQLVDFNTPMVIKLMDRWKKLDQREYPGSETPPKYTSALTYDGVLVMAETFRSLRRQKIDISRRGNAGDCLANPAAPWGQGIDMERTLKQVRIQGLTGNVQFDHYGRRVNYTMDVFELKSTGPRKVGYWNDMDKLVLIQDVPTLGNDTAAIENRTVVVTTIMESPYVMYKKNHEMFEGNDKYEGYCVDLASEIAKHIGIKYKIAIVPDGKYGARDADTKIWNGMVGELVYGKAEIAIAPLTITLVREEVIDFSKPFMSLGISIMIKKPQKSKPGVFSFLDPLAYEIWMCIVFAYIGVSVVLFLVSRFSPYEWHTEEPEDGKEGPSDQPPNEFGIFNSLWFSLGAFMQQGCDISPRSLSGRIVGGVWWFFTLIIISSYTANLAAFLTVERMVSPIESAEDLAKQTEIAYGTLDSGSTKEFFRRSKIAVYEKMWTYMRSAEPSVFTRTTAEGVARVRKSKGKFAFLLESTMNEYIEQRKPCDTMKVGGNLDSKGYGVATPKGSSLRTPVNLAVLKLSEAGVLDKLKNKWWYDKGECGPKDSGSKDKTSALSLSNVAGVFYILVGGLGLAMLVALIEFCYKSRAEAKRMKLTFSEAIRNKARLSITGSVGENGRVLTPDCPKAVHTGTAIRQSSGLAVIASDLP
structure (smiles),measurement,value
NS(=O)(=O)c1cc2c(cc1Cl)NC(C1CC3C=CC1C3)NS2(=O)=O (stereo not shown) [cyclothiazide],potentiation of agonist-induced excitability,potentiate agonist-induced excitability

# — patent US6617351B1, “Amide, carbamate, and urea derivatives” (Eli Lilly and Company, priority 1998, dated 2003)
